The values below come from article PMC12607616, “Elucidation of a bacterial pathway for catabolism of the β–β-linked dilignol pinoresinol” (mBio, 2025).

Read-outs that look alike come from different tables or passages of the source.

This assay relates to T1, PinZ.
T1 construct: full-length, N-terminal hexahistidine tag kept (pET-28a(+), pJM492), E. coli BL21 Star (DE3)
The assay is described as follows: steady-state kinetics, reversed-phase HPLC. The conditions noted are these: NADPH co-substrate, 20 mM Tris-HCl pH 7.0, 30 °C, 10 min, read-out: apparent Km. Type of assay: biochemical, Novosphingobium rhizosphaerae.

With `COc1cc(C2OCC3C(c4ccc(O)c(OC)c4)OCC23)ccc1O` (racemic) [(±)-pinoresinol], the Michaelis constant (Km) (racemate) is 27 ± 6.6 µM. For `COc1cc([C@H]2OC[C@H]3[C@@H]2CO[C@@H]3c2ccc(O)c(OC)c2)ccc1O` [(+)-pinoresinol], where the note is “~88% e.e. (+)-pinoresinol preparation”, the Michaelis constant (Km) was 22.1 ± 3.2 µM.

A word on the Km: it is the concentration of substrate that gives half-maximal velocity.
